Experimental data from ChEMBL document CHEMBL5620385, “Orally bioavailable styryl derivative of rohitukine-N-oxide inhibits CDK9/T1 and the growth of pancreatic cancer cells” (Eur J Med Chem, 2023).

Assays:
[1] = biological target: Cyclin-dependent kinase 7/ cyclin H (Homo sapiens) (UniProt P51946+P50613); assay: Inhibition of CDK7/cyclin H (unknown origin) at 10 uM by ADP-Glo assay relative to control; type: protein-complex assay
[2] = biological target: CDK9/Cyclin K (Homo sapiens) (UniProt P50750+O75909); assay: Inhibition of CDK9/cyclin K (unknown origin) at 10 uM by ADP-Glo assay relative to control; type: protein-complex assay
[3] = tested on: HCT-116; assay: Antiproliferative activity against human HCT-116 cells assessed as cell growth inhibition at 10 uM incubated for 48 hrs by MTT assay relative to control; type: functional
[4] = tested on: MIA PaCa-2; assay: Antiproliferative activity against human MIA PaCa-2 cells assessed as cell growth inhibition at 10 uM incubated for 48 hrs by MTT assay relative to control; type: functional
[5] = Antiproliferative activity against HEK293 cells assessed as cell growth inhibition at 10 uM incubated for 48 hrs by MTT assay relative to control; type: toxicity, cell-based; conditions: human
[6] = biological target: Cyclin-dependent kinase 7/ cyclin H (Homo sapiens, UniProt P50613); assay: Inhibition of CDK7/cyclin H (unknown origin) by ADP-Glo assay; type: protein-complex assay
[7] = biological target: CDK9/Cyclin K (Homo sapiens, UniProt P50750); assay: Inhibition of CDK9/cyclin K (unknown origin) by ADP-Glo assay; type: protein-complex assay
[8] = biological target: CDK9/cyclin T1 (Homo sapiens, UniProt P50750); assay: Inhibition of CDK9/cyclin T1 (unknown origin) by ADP-Glo assay; type: protein-complex assay
[9] = tested on: HCT-116; assay: Antiproliferative activity against human HCT-116 cells assessed as cell growth inhibition incubated for 48 hrs by MTT assay; type: functional
[10] = tested on: MIA PaCa-2; assay: Antiproliferative activity against human MIA PaCa-2 cells assessed as cell growth inhibition incubated for 48 hrs by MTT assay; type: functional
[11] = Antiproliferative activity against HEK293 cells assessed as cell growth inhibition incubated for 48 hrs by MTT assay; type: toxicity, cell-based; conditions: human
[12] = tested on: MIA PaCa-2; assay: Induction of intracellular ROS generation in human MIA PaCa-2 cells incubated for 48 hrs by DCFDA dye based analysis; type: functional, cell-based
[13] = tested on: MIA PaCa-2; assay: Induction of mitochondrial membrane potential loss in human MIA PaCa-2 cells incubated for 48 hrs by Rhodamine-123 dye based analysis; type: functional, cell-based
[14] = tested on: MIA PaCa-2; assay: Induction of apoptosis in human MIA PaCa-2 cells assessed as apoptotic body formation incubated for 48 hrs by DAPI staining based analysis; type: functional, cell-based
[15] = tested on: MIA PaCa-2; assay: Induction of apoptosis in human MIA PaCa-2 cells assessed as chromatin condensation incubated for 48 hrs by DAPI staining based analysis; type: functional, cell-based
[16] = Metabolic stability in human liver microsomes assessed as drug metabolism at 10 uM measured after 30 mins in presence of NADPH by HPLC analysis; type: ADME, Microsome; conditions: read-out: Drug metabolism
[17] = Metabolic stability in mouse liver microsomes assessed as drug metabolism at 10 uM measured after 30 mins in presence of NADPH by HPLC analysis; type: ADME, Microsome; conditions: read-out: Drug metabolism
[18] = C0 in BALB/c mouse at 5 mg/kg, iv measured for 6 hrs by LC-MS/MS analysis; type: ADME, organism-based; conditions: in vivo
[19] = AUC(0 to t) in BALB/c mouse at 5 mg/kg, iv measured for 6 hrs by LC-MS/MS analysis; type: ADME, organism-based; conditions: in vivo
[20] = AUC(0 to infinity) in BALB/c mouse at 5 mg/kg, iv measured for 6 hrs by LC-MS/MS analysis; type: ADME, organism-based; conditions: in vivo
[21] = Half life in BALB/c mouse at 5 mg/kg, iv measured for 6 hrs by LC-MS/MS analysis; type: ADME, organism-based; conditions: in vivo
[22] = Volume of distribution in BALB/c mouse at 5 mg/kg, iv measured for 6 hrs by LC-MS/MS analysis; type: ADME, organism-based; conditions: in vivo
[23] = Clearance in BALB/c mouse at 5 mg/kg, iv measured for 6 hrs by LC-MS/MS analysis; type: ADME, organism-based; conditions: in vivo
[24] = Cmax in BALB/c mouse at 30 mg/kg, po measured for 6 hrs by LC-MS/MS analysis; type: ADME, organism-based; conditions: in vivo
[25] = Tmax in BALB/c mouse at 30 mg/kg, po measured for 6 hrs by LC-MS/MS analysis; type: ADME, organism-based; conditions: in vivo
[26] = AUC(0 to t) in BALB/c mouse at 30 mg/kg, po measured for 6 hrs by LC-MS/MS analysis; type: ADME, organism-based; conditions: in vivo
[27] = AUC(0 to infinity) in BALB/c mouse at 30 mg/kg, po measured for 6 hrs by LC-MS/MS analysis; type: ADME, organism-based; conditions: in vivo
[28] = Half life in BALB/c mouse at 30 mg/kg, po measured for 6 hrs by LC-MS/MS analysis; type: ADME, organism-based; conditions: in vivo
[29] = Volume of distribution in BALB/c mouse at 30 mg/kg, po measured for 6 hrs by LC-MS/MS analysis; type: ADME, organism-based; conditions: in vivo
[30] = Clearance in BALB/c mouse at 30 mg/kg, po measured for 6 hrs by LC-MS/MS analysis; type: ADME, organism-based; conditions: in vivo

Cyclin-dependent kinase 7/ cyclin H, sequence (P51946 whole entry): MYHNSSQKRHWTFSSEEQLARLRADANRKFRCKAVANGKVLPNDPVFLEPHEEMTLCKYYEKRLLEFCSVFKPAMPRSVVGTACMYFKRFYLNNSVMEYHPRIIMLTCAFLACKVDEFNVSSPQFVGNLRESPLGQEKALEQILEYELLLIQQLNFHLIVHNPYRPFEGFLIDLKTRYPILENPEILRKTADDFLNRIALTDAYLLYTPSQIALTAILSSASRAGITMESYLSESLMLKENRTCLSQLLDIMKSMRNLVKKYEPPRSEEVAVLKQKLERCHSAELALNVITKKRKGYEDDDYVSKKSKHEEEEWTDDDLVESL
Cyclin-dependent kinase 7/ cyclin H, sequence (P50613 whole entry): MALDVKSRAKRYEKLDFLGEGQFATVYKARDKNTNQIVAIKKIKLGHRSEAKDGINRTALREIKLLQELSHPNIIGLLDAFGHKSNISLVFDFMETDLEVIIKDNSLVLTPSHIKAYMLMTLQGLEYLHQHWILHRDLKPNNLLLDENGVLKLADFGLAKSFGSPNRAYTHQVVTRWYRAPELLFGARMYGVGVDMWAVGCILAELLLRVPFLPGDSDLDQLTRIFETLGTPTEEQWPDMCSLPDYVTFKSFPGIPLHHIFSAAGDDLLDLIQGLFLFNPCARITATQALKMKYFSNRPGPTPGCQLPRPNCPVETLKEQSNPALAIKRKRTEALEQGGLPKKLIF
CDK9/cyclin T1, sequence (O60563 whole entry): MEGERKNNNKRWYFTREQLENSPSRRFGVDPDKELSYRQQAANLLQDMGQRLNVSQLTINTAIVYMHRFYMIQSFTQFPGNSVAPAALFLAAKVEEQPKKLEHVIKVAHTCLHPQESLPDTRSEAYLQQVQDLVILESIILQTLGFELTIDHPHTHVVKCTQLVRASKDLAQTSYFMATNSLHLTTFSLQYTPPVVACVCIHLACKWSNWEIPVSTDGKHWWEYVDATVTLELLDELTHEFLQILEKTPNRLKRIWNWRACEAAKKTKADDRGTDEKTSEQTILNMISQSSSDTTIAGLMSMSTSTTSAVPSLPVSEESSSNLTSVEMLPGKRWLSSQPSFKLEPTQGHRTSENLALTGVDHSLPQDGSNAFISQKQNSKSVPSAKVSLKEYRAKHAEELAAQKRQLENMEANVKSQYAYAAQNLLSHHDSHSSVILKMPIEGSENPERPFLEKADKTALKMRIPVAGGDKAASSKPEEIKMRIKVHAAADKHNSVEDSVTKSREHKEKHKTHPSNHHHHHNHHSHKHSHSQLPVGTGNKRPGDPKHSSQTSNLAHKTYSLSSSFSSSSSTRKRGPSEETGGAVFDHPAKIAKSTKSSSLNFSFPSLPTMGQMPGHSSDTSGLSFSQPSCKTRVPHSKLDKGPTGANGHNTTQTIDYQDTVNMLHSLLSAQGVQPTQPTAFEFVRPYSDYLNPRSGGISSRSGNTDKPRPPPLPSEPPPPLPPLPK
CDK9/cyclin T1, sequence (P50750 whole entry): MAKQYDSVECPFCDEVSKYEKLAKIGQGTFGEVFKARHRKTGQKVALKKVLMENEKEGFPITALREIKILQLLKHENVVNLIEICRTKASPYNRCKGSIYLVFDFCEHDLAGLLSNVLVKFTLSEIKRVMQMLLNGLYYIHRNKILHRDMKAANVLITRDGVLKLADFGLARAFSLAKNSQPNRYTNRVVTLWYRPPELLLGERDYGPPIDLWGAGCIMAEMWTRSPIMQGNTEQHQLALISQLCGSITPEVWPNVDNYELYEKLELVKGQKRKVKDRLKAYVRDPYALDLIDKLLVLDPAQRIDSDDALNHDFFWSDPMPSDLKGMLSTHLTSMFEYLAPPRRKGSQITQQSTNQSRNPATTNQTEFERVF
CDK9/Cyclin K, sequence (P50750 whole entry): as above
CDK9/Cyclin K, sequence (O75909 whole entry, further chain): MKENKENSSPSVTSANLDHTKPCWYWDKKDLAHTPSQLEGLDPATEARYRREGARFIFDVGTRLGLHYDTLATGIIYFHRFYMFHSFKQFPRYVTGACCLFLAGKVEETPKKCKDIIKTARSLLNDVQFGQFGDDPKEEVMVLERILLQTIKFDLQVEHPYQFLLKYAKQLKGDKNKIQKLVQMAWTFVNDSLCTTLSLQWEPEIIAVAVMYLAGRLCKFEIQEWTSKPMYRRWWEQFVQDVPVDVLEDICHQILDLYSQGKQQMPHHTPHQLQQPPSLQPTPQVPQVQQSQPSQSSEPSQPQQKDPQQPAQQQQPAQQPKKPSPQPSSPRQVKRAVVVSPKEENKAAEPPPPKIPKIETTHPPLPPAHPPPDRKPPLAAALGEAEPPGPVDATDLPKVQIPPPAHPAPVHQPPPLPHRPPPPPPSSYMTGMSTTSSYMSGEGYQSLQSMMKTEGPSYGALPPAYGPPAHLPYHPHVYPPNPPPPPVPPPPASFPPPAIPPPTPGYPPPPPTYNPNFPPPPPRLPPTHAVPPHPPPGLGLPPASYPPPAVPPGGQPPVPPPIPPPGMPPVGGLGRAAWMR

COc1cc(O)c2c(=O)cc(/C=C/c3c(F)cccc3Cl)oc2c1[C@H]1CC[N+](C)([O-])C[C@H]1O (stereo not given in full)
inhibition [1]: 28.7%
inhibition [2]: 41.7%
inhibition at 10 µM [3]: 25.2%
inhibition at 10 µM [4]: 24.9%
inhibition at 48 h, 10 µM [5]: 14.9%
IC50 [6]: 540 nM
IC50 [7]: 2280 nM
IC50 [8]: 150 nM
GI50 [9]: 2530 nM
GI50 [10]: 5530 nM
GI50 at 48 h [11]: 81500 nM
Activity [12]: Dose-Dependent Effect
Activity [13]: Dose-Dependent Effect
Activity [14]: Dose-Dependent Effect
Activity [15]: Dose-Dependent Effect
metabolised at 0.5 h, 10 µM [16]: 16%
metabolised at 0.5 h, 10 µM [17]: 16%
C0 at 6 h [18]: 19100 ng/mL
AUC(0-t) at 6 h [19]: 956 ng·h/mL
AUC(0-inf) [20]: 957 ng·h/mL
half-life [21]: 6 min
Vd [22]: 0.8 L/kg
clearance [23]: 86.7 mL/min/kg
Cmax [24]: 817 ng/mL
Tmax [25]: 30 min
AUC(0-t) at 6 h [26]: 400 ng·h/mL
AUC(0-inf) [27]: 401 ng·h/mL
half-life [28]: 9.6 min
Vd [29]: 17 L/kg
CL/F [30]: 1250 mL/min/kg
